Data on four molecules can be found in patent publication US5399699A, “Indole iminooxy derivatives which inhibit leukotriene biosynthesis” (Abbott Laboratories, priority 1994, dated 1995).

Test [1] has as its system leukotriene biosynthesis. Nature of the test: Inhibition of leukotriene biosynthesis in vivo, rat peritoneal anaphylaxis model, oral administration. The following applies: 1 h, by gavage one hour prior to antigen challenge. As to the method:
Inhibition of the biosynthesis of leukotrienes in vivo after oral administration of compound was determined using a rat peritoneal anaphylaxis model in a similar manner as that described by Young and coworkers (Young, P. R.; Dyer, R. D.; Carter, G. W. Fed. Proc., Fed. Am. Sec. Exp. Biol. 1985, 44, 1185). In this model rats were injected intraperitoneally (ip) with rabbit antibody to bovine serum albumin (BSA) and three hours later injected ip with BSA to induce an antigen-antibody response. Rats were sacrificed 15 minutes after this challenge and the peritoneal fluids were collected and analyzed for leukotriene levels. Test compounds were administered by gavage one hour prior to the antigen challenge. Percent inhibition values were determined by comparing the treatment group to the mean of the control group.

Test [2] deals with LTB4 biosynthesis in human polymorphonuclear leukocytes (PMNL). Put plainly: Inhibition of calcium ionophore (A23187)-induced LTB4 biosynthesis in human PMNL. Type of test: cell-based. The following applies: 15 min preincubation at 37° C., A23187 8.3 μM, 10 min, LTB4 by HPLC. As to the method: Inhibition of leukotriene biosynthesis was evaluated in assays, involving calcium ionophore-induced LTB4 biosynthesis expressed by human polymorphonuclear leukocytes (PMNL) or human whole blood. Human PMNL were isolated from heparinized (20 USP units/mL) venous blood using Ficoll-Hypaque Mono-Poly Resolving Medium. Human PMNL suspensions (5×10^6 cells/250 μL) were preincubated with test compounds or vehicle for 15 min at 37° C. followed by calcium ionophore A23187 challenge (final concentration of 8.3 μM) and the reaction terminated after 10 min by adding two volumes of methanol containing prostaglandin B2 as an internal recovery standard. The methanol extracts were analyzed for LTB4 content by HPLC.

One may read the ED50 as the midpoint of the dose-response relation. The term IC50 denotes the concentration at which inhibition is half-maximal.

In turn, `CC(C)(CON=CC(=O)O)Cc1c(SC(C)(C)C)c2cc(OCc3ccc4ccccc4n3)ccc2n1Cc1ccc(Cl)cc1` [Example 1] came in with a median effective dose (ED50) in test [1] of 0.9 mg/kg. In addition, the IC50 in test [2] turned out to be 10 nM.
In the case of `CC(=NOCC(C)(C)Cc1c(SC(C)(C)C)c2cc(OCc3ccc4ccccc4n3)ccc2n1Cc1ccc(Cl)cc1)C(=O)O` [Example 2, 1-(4-chlorobenzyl)-3-(t-butylthio)-5-(2-quinolinemethoxy)indol-2-yl(2,2-dimethyl)prop-3-yl-iminooxy-2-propionic acid], the IC50 in test [2] is 10 nM.
Turning to `CC(C)(CON=CC(=O)O)Cc1c(SC(C)(C)C)c2cc(OCc3ccc4ccccc4n3)ccc2n1Cc1ccc(F)cc1` [Example 6, 1-(4-fluorobenzyl)-3-(t-butylthio)-5-(2-quinolinylmethoxy)indol-2-yl-(2,2-dimethyl)prop-3-yliminooxyacetic acid], the IC50 in test [2] was determined as 5 nM.
On the same count and under the same terms, the same measure for `CC(=NOCC(C)(C)Cc1c(SC(C)(C)C)c2cc(OCc3cscn3)ccc2n1Cc1ccc(Cl)cc1)C(=O)O` [Example 5, 1-(4-chlorobenzyl)-3-(t-butylthio)-5-(4-thiazolylmethoxy)indol-2-yl-(2,2-dimethyl)prop-3-yliminooxy-2-propionic acid]: 8 nM.
